Assay results reported in patent US20250367160A1, “USE OF GUAIJAVERIN IN PREPARATION OF EYE PROTECTION PRODUCT” (Innovation Center of Yangtze River Delta, ZJU, priority 2024, published 2025).

Assays:
[1] = system: ocular apoptotic cells of the zebrafish; test: Anti-blue light eye protection efficacy, AO staining of ocular apoptotic cells in zebrafish blue light eye damage model; assay type: in vivo; conditions: for Fluorescence intensity of ocular apoptotic cells (pixel, mean ± SE): aqueous, 28° C., 1 d, n = 10, model group 45833 ± 4825, normal control 12203 ± 1124
Procedure: Wild-type AB zebrafish at 1 dpf were randomly selected and irradiated with blue light after membrane rupture to establish the zebrafish blue light eye damage model. Model zebrafish with desirable development status were selected at 3 dpf and randomly distributed in 6-well plates, with 30 zebrafish in each well (experimental group) were treated. Different concentrations of guaijaverin (see Table 2 for concentrations) were administered aqueously, and lutein at a concentration of 62.5 μg/mL were used as a positive control, while a normal control group and a model group were also set up, with a volume of 3 mL per well. After 1 d of treatment at 28° C., the zebrafish in each experimental group were stained with AO in the dark for 30 min and washed 3 times with standard dilution water. 10 zebrafish were randomly selected from each experimental group and photographed under a fluorescence microscope. The data were analyzed and collected using Image J software. The fluorescence intensity of ocular apoptotic cells of the zebrafish was statistically analyzed. The anti-blue light eye protection efficacy of guaijaverin was evaluated based on the statistical analysis results of the above indicators. The statistical result was expressed as mean±SE.

[2] = system: mouse retinal apoptotic cells; test: Mouse retinal optical damage model, TUNEL staining of retinal apoptotic cells; assay type: in vivo, BALB/c mice; conditions: for retinal cell apoptosis caused by light (TUNEL): gavage once a day 10 days, vs model group, FIG. 6
Procedure: (§1) A self-made light box with a length of 108 cm, a width of 50 cm, and a height of 72 cm was used, and the light intensity was measured by a light meter to be 8,500-10,000 Lux. After eye examination, 60 mice with normal eyeballs were selected and randomly divided into a control group, a model group, a lutein group (100 mg/kg), a guaijaverin low-dose group (50 mg/kg), and a guaijaverin high-dose group (100 mg/kg), with 12 mice in each group. Lutein and guaijaverin were suspended in 5% sodium carboxymethylcellulose (CMC-Na) solution and administered by gavage once a day. The mice in the control and model groups were administered by gavage with an equal volume of 5% CMC-Na for 10 consecutive days. 10 days later, the mice in the model group, lutein group, guaijaverin low-dose group, and guaijaverin high-dose group were kept in the dark for 36 h, atropine eye gel was applied to both eyes of the mice to induce pupil dilation, and the mice were placed in the self-made lighting device of 8,000-10,000 Lux (the control group was raised in a normal environment) and given continuous light for 24 h. After the light exposure, the mice in each group had their eyeballs removed to draw blood and eyeball tissue collected for subsequent experimental tests.
Eyeball tissues of 6 mice were collected from each group for Hematoxylin-eosin staining (H&E) and TUNEL fluorescence staining of apoptotic cells, and the pathological changes of mouse eyeball tissues were observed using an optical microscope (completed by Wuhan Servicebio Biotechnology Co., Ltd.).
a) Dewaxing the paraffin sections to water: the sections were sequentially placed into environmental-friendly dewaxing solution I for 10 min, environmental-friendly dewaxing solution II for 10 min, environmental-friendly dewaxing solution III for 10 min, anhydrous ethanol I for 5 min, anhydrous ethanol II for 5 min, anhydrous ethanol III for 5 min and washed with distilled water.
b) Proteinase K repair: after the sections were slightly dried, a tissue pen was used to draw a circle around the tissue (to prevent the liquid from flowing away), a proteinase K working solution was added in the circle to cover the tissue, and incubated in a 37° C. incubator for 20 min. The slides were placed in PBS (PH=7.4) and washed 3 times on a decolorizing shaker, each time for 5 min. (Preparation method of proteinase K working solution, stock solution:PBS=1:9). […]
g) Sealing: the slides were placed in PBS (PH7.4) and washed on a decolorizing shaker for 3 times, 5 min each time. The sections were slightly spin-dried and mounted with anti-fluorescence fading mounting medium. […]

IL-6 = test: Mouse retinal optical damage model, plasma IL-6 level; assay type: in vivo, BALB/c mice; conditions: gavage once a day 10 days, vs model group, FIG. 8
Procedure: as §1, with “After the light exposure, the mice in each group had their eyeballs removed to draw blood and eyeball tissue collected for subsequent experimental tests.” left out
The mouse blood was collected in an anticoagulant tube and centrifuged at 3,000 rpm for 10 min at 4° C. to collect the upper plasma. The IL-6 content was determined according to the method provided by the kit manufacturer.

[3] = system: Heme Oxygenase-1 (HO-1 protein); test: Mouse retinal optical damage model, Western blot of HO-1 protein in retina; assay type: in vivo, BALB/c mice; conditions: high-dose 100 mg/kg, gavage once a day 10 days, vs model group, FIG. 9
Procedure: A self-made light box with a length of 108 cm, a width of 50 cm, and a height of 72 cm was used, and the light intensity was measured by a light meter to be 8,500-10,000 Lux. After eye examination, 60 mice with normal eyeballs were selected and randomly divided into a control group, a model group, a lutein group (100 mg/kg), a guaijaverin low-dose group (50 mg/kg), and a guaijaverin high-dose group (100 mg/kg), with 12 mice in each group. Lutein and guaijaverin were suspended in 5% sodium carboxymethylcellulose (CMC-Na) solution and administered by gavage once a day. The mice in the control and model groups were administered by gavage with an equal volume of 5% CMC-Na for 10 consecutive days. […]
The mouse retina was taken, and 100-150 μL of RIPA lysis buffer was added for every 10 mg of tissue. After sufficient lysis, the protein content was detected using a BCA protein quantification kit. […] The bands were analyzed by the supporting software of the red laser two-color imaging system, with GAPDH protein expression as an internal reference.

Compound: O=c1c(O[C@@H]2OC[C@H](O)[C@H](O)[C@H]2O)c(-c2ccc(O)c(O)c2)oc2cc(O)cc(O)c12 [Guaijaverin, guaijaverin]
- Fluorescence intensity of ocular apoptotic cells (pixel, mean ± SE) ([1]; 62.5 μg/mL): 31471 ± 2353 pixel
- eye protection effect against blue optical damage compared with lutein ([1]; 125 μg/mL vs lutein 62.5 μg/mL): same significant eye protection effect as lutein
- Fluorescence intensity of ocular apoptotic cells (pixel, mean ± SE) ([1]; 125 μg/mL): 24765 ± 2077 pixel
- eye protection effect against blue optical damage compared with lutein ([1]; 150 μg/mL vs lutein 62.5 μg/mL): more significant eye protection effect than lutein
- Fluorescence intensity of ocular apoptotic cells (pixel, mean ± SE) ([1]; 150 μg/mL): 18149 ± 1688 pixel
- protective effect on retinal cell apoptosis compared with lutein (TUNEL) ([2]; high-dose 100 mg/kg vs lutein 100 mg/kg): better protective effect than lutein
- retinal cell apoptosis caused by light (TUNEL) ([2]; high-dose 100 mg/kg): effectively improve retinal cell apoptosis caused by light
- protective effect on retinal cell apoptosis compared with lutein (TUNEL) ([2]; low-dose 50 mg/kg vs lutein 100 mg/kg): comparable to that of the positive control lutein
- retinal cell apoptosis caused by light (TUNEL) ([2]; low-dose 50 mg/kg): effectively improve retinal cell apoptosis caused by light
- plasma level of IL-6 (IL-6; high-dose 100 mg/kg): significantly reduce the level of IL-6
- plasma level of IL-6 (IL-6; low-dose 50 mg/kg): significantly reduce the level of IL-6
- expression of HO-1 protein in the retinal tissue [3]: significantly reduced the expression of HO-1 protein
